Reference: patent US9168259B2 (GRÜNENTHAL GMBH, priority 2010, dated 2015)

Columns and labels:
[1] = target: T1, KCNQ2/3 channels (Homo sapiens, UniProt O43525+O43526); assay: Fluorescence assay using a voltage sensitive dye (fluorimetry); type: cell-based; conditions: CHO-K1 cells expressing KCNQ2/3; for Emax: CHO-K1, plateau effect relative to saturated retigabine (50 μM) = 100%, negative values = antagonistic, read-out: Fluorimetry % efficacy (retigabine = 100%); for EC50: IC50 where % efficacy is negative, read-out: Fluorimetry EC50/IC50
T1 construct: expressed in transfected cells

[2] = test system: rat; assay: Low-intensity tail flick test (rat); type: in vivo; conditions: po, peroral
Protocol: Method II. Low-Intensity Tail Flick Test (Rat)
In the low-intensity tail flick test, the determination of the antinociceptive effect of the compounds according to the invention towards an acute noxious thermal stimulus is carried out by measuring the withdrawal reflex of the rat tail (tail flick) in response to a radiant heat beam (analgesia meter; model 2011 of the company Rhema Labortechnik, Hofheim, Germany) according to the method described by D'Amour and Smith (J. Pharm. Exp. Ther. 72, 74 79 (1941). To this end, the rats were placed in a plexiglass restrainer, and a low-intensity radiant heat beam (48° C.) was focused onto the dorsal surface of the tail root. The stimulus intensity was adjusted to result in a mean pre-drug control withdrawal latency of about 7 s, thus also allowing a supraspinal modulation of the spinally mediated acute nociceptive reflex. A cutoff time of 30 s was applied to avoid tissue damage. Male Sprague-Dawley rats (Janvier, Le Genest St. Isle, Frankreich) with weights of 200-250 g were used. 10 rats were used per group. Before administration of a compound according to the invention, the animals were pre-tested twice in the course of five minutes and the mean of these measurements was calculated as the pre-test mean. The antinociceptive effect was determined at 20, 40 and 60 min after peroral compound administration. The antinociceptive effect was calculated based on the increase in the tail withdrawal latency according to the following formula and is expressed as percentage of the maximum possible effect (MPE [%]): MPE=[(T1−T0)/(T2−T0)]*100
In this, T0 is the control latency time before and T1 the latency time after administration of the compound, T2 is the cutoff time and MPE is the maximum possible effect. Employing variant analysis (repeated measures ANOVA) allowed testing of statistically significant differences between the compounds according to the invention and the vehicle group. The significance level was set to p≦0.05. To determine the dose dependency, the particular compound according to the invention was administered in 3-5 logarithmically increasing doses, including a threshold dose and a maximum effective dose, and the ED50 values were determined with the aid of regression analysis. The ED50 calculation was performed at the time of maximum efficacy (usually 20 min after administration of the compounds).

[3] = MPE = % of maximum possible effect

T1 sequence (O43526 whole entry): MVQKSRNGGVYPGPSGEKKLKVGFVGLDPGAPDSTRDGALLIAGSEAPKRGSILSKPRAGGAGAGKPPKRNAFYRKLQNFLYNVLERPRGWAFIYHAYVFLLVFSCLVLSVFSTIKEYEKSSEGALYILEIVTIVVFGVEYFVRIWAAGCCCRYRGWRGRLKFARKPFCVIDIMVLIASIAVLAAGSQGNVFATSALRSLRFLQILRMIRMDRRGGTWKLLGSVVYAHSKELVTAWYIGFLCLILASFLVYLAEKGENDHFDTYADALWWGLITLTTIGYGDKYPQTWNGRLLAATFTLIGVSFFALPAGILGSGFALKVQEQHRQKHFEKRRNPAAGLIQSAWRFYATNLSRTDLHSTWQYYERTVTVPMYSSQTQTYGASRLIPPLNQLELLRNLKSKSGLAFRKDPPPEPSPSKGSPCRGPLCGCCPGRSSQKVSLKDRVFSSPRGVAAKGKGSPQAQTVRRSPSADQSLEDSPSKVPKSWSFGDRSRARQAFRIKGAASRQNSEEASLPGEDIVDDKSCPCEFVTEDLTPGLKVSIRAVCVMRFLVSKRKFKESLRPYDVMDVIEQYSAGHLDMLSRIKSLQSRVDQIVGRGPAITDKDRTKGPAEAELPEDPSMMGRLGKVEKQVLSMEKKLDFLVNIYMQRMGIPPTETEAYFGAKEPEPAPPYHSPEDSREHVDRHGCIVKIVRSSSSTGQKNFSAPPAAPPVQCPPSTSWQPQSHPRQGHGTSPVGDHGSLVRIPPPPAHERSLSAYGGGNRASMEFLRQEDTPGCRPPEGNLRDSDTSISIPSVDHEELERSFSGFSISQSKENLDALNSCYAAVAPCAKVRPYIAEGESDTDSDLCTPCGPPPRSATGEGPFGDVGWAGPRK
T1 sequence (O43525 whole entry): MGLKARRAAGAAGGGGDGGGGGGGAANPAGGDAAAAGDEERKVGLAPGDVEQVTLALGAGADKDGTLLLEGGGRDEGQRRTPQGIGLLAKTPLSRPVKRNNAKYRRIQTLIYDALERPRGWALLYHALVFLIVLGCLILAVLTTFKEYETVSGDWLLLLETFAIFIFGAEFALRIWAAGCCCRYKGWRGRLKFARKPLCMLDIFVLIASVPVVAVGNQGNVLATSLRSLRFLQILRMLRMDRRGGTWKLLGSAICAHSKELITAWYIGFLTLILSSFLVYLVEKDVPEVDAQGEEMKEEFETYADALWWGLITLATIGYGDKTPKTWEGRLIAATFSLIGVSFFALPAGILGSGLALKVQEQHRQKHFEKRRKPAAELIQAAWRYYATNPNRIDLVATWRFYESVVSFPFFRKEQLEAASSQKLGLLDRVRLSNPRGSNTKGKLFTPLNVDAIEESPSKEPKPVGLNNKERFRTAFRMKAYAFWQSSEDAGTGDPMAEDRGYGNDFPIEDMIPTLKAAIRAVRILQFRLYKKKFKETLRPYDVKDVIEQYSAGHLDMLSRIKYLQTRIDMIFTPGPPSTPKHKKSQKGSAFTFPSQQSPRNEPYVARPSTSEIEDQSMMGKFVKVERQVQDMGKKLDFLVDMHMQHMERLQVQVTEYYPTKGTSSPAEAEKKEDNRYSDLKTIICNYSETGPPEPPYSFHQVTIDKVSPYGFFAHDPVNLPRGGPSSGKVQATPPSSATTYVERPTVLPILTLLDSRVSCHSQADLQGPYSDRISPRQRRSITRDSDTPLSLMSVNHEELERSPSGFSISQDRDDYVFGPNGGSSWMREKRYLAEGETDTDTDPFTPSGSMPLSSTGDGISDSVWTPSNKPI

SMILES | Emax [1] | EC50 [1] | inhibition in vivo at 10 mg/kg [2, 3] | inhibition in vivo at 6.81 mg/kg ([2]; dose 6.81 mg/kg, MPE = % of maximum possible effect) | inhibition in vivo at 4.64 mg/kg ([2]; dose 4.64 mg/kg, MPE = % of maximum possible effect) | ED50 ([2]; ED50 at time of maximum efficacy)
CSc1nc(N2CCOCC2)cc(C)c1C(=O)NCc1cccc(F)c1 [Example 40, N-[(3-Fluorophenyl)-methyl]-4-methyl-2-methylsulfanyl-6-morpholin-4-yl-pyridine-3-carboxylic acid amide] | 168% | 587 nM | 84% | – | – | –
CCSc1nc(N2CCOCC2)cc(C)c1C(=O)NCCCC(C)C [Example 79, 2-Ethylsulfanyl-4-methyl-N-(4-methyl-pentyl)-6-morpholin-4-yl-pyridine-3-carboxylic acid amide] | 215% | 206 nM | 46% | – | – | –
CCSc1nc(N2CCOCC2)cc(C)c1C(=O)NCCCC(C)(C)C [Example 67, N-(4,4-Dimethyl-pentyl)-2-ethylsulfanyl-4-methyl-6-morpholin-4-yl-pyridine-3-carboxylic acid amide] | 244% | 42 nM | 100% | – | – | –
CCSc1nc(N2CCOCC2)cc(C)c1C(=O)NCc1ccc(F)c(F)c1 [Example 41, N-[(3,4-Difluoro-phenyl)-methyl]-2-ethylsulfanyl-4-methyl-6-morpholin-4-yl-pyridine-3-carboxylic acid amide] | 169% | 69 nM | – | 92% | – | –
CCOc1nc(N2CCOCC2)cc(C)c1C(=O)NCc1cccc(F)c1 [Example 38, 2-Ethoxy-N-[(3-fluorophenyl)-methyl]-4-methyl-6-morpholin-4-yl-pyridine-3-carboxylic acid amide] | 144% | 219 nM | 61% | – | – | –
CCSc1nc(N2CCOCC2)cc(C)c1C(=O)NCc1cc(F)cc(F)c1 [Example 1, N-[(3,5-Difluoro-phenyl)-methyl]-2-ethylsulfanyl-4-methyl-6-morpholin-4-yl-pyridine-3-carboxylic acid amide] | 160% | 56 nM | – | – | 78% | –
CCSc1nc(N2CCOCC2)cc(C)c1C(=O)NCc1cccc(F)c1 [Example 2, 2-ethylsulfanyl-N-[(3-fluorophenyl)-methyl]-4-methyl-6-morpholin-4-yl-pyridine-3-carboxylic acid amide] | 171% | 134 nM | – | – | – | 4.3 mg/kg
CCSc1nc(N2CCOCC2)cc(C)c1C(=O)NCc1ccc(F)cc1 [Example 4, 2-Ethylsulfanyl-N-[(4-fluorophenyl)-methyl]-4-methyl-6-morpholin-4-yl-pyridine-3-carboxylic acid amide] | 158% | 124 nM | 94% | – | – | –
CCCc1nc(N2CCOCC2)cc(C)c1C(=O)NCc1cccc(F)c1 [Example 10, N-[(3-Fluorophenyl)-methyl]-4-methyl-6-morpholin-4-yl-2-propyl-pyridine-3-carboxylic acid amide] | 176% | 181 nM | 81% | – | – | –
CCSc1nc(N(C)C)cc(C)c1C(=O)NCCCC(C)(C)C [Example 210, 6-Dimethylamino-N-(4,4-dimethyl-pentyl)-2-ethylsulfanyl-4-methyl-pyridine-3-carboxylic acid amide] | 223% | 187 nM | – | – | – | –
CCSc1nc(N2CCOCC2)cc(C)c1C(=O)NCc1cccc(C(F)(F)F)c1 [Example 59, 2-Ethylsulfanyl-4-methyl-6-morpholin-4-yl-N-[[3-(trifluoromethyl)phenyl]methyl]-pyridine-3-carboxylic acid amide] | 128% | 70 nM | – | – | – | –
CCSc1nc(N2CCC(C)CC2)cc(C)c1C(=O)NCc1cccc(F)c1 [Example 70, 2-Ethylsulfanyl-N-[(3-fluorophenyl)-methyl]-4-methyl-6-(4-methyl-piperidin-1-yl)-pyridine-3-carboxylic acid amide] | 175% | 163 nM | – | – | – | –
CCSc1nc(N2CCOC(CCOC)C2)cc(C)c1C(=O)NCc1cccc(F)c1 (stereo not shown) [Example 229, 2-Ethylsulfanyl-N-[(3-fluorophenyl)-methyl]-6-[2-(2-methoxy-ethyl)-morpholin-4-yl]-4-methyl-pyridine-3-carboxylic acid amide] | 132% | 719 nM | – | – | – | –
Cc1cc(N2CCOCC2)nc(C2CC2)c1C(=O)NCc1ccc(C(F)(F)F)cc1 [Example 334, 2-Cyclopropyl-4-methyl-6-morpholin-4-yl-N-[[4-(trifluoromethyl)-phenyl]-methyl]-pyridine-3-carboxylic acid amide] | 124% | 96 nM | – | – | – | –
COc1nc(N2CCOCC2)cc(C)c1C(=O)NCc1cccc(F)c1 [Example 19, N-[(3-Fluorophenyl)-methyl]-2-methoxy-4-methyl-6-morpholin-4-yl-pyridine-3-carboxylic acid amide] | 155% | 736 nM | 79% | – | – | –
CCSc1nc(N2CCOC[C@H]2C)cc(C)c1C(=O)NCc1cccc(F)c1 [Example 295, 2-Ethylsulfanyl-N-[(3-fluorophenyl)-methyl]-4-methyl-6-[(3R)-3-methyl-morpholin-4-yl]-pyridine-3-carboxylic acid amide] | 188% | 50 nM | – | – | – | –
CCSc1nc(N2CCOCC2)cc(OC)c1C(=O)NCc1cccc(F)c1 [Example 336, 2-Ethylsulfanyl-N-[(3-fluorophenyl)-methyl]-4-methoxy-6-morpholin-4-yl-pyridine-3-carboxylic acid amide] | 183% | 430 nM | – | – | – | –
CCSc1nc(N2CCOCC2)cc(C)c1C(=O)NCCCC1CC1 [Example 141, N-(3-Cyclopropyl-propyl)-2-ethylsulfanyl-4-methyl-6-morpholin-4-yl-pyridine-3-carboxylic acid amide] | 167% | 242 nM | – | – | – | –
CCSc1nc(N2CCOCC2)cc(C)c1C(=O)NCc1ccc2c(c1)COC2 [Example 289, N-(1,3-Dihydro-isobenzofuran-5-yl-methyl)-2-ethylsulfanyl-4-methyl-6-morpholin-4-yl-pyridine-3-carboxylic acid amide] | 129% | 2820 nM | – | – | – | –
CCCc1nc(N2CCOCC2)cc(C)c1C(=O)NCc1ccc(F)cc1 [Example 29, N-[(4-Fluorophenyl)-methyl]-4-methyl-6-morpholin-4-yl-2-propyl-pyridine-3-carboxylic acid amide] | 185% | 236 nM | – | – | – | –
CCSc1nc(N2CCC2)cc(C)c1C(=O)NCc1cccc(F)c1 [Example 299, 6-(Azetidin-1-yl)-2-ethylsulfanyl-N-[(3-fluorophenyl)-methyl]-4-methyl-pyridine-3-carboxylic acid amide] | 104% | 920 nM | – | – | – | –
COC[C@@H]1CN(c2cc(C)c(C(=O)NCc3ccc(Cl)cc3)c(C3CC3)n2)CCO1 [Example 290, N-[(4-Chlorophenyl)-methyl]-2-cyclopropyl-6-[(2S)-2-(methoxymethyl)-morpholin-4-yl]-4-methyl-pyridine-3-carboxylic acid amide] | 136% | 314 nM | – | – | – | –
CCSc1nc(N2CCc3ccccc3C2)cc(C)c1C(=O)NCc1cccc(F)c1 [Example 26, 2-Ethylsulfanyl-N-[(3-fluorophenyl)-methyl]-4-methyl-6-(1,2,3,4-tetrahydro-isoquinolin-2-yl)-pyridine-3-carboxylic acid amide] | 155% | 132 nM | – | – | – | –
CCSc1nc(N2CCOCC2)cc(C)c1C(=O)NCCOC(C)C [Example 103, 2-Ethylsulfanyl-N-(2-isopropoxy-ethyl)-4-methyl-6-morpholin-4-yl-pyridine-3-carboxylic acid amide] | 142% | 4520 nM | – | – | – | –
Cc1cc(N2CCOCC2)nc(OCC(F)F)c1C(=O)NCc1ccc(F)cc1 [Example 272, 2-(2,2-Difluoro-ethoxy)-N-[(4-fluorophenyl)-methyl]-4-methyl-6-morpholin-4-yl-pyridine-3-carboxylic acid amide] | 96% | 78 nM | – | – | – | –
CC(C)c1cc(N2CCOCC2)nc(C(C)C)c1C(=O)NCc1ccc(Cl)cc1 [Example 357, N-[(4-Chlorophenyl)-methyl]-2,4-diisopropyl-6-morpholin-4-yl-pyridine-3-carboxylic acid amide] | 17% | – | – | – | – | –
